From publication PMC12029898, “Cellular Metabolomics Reveals Differences in the Scope of Liver Protection Between Ammonium-Based Glycyrrhizinate and Magnesium Isoglycyrrhizinate” (Metabolites, 2025) come the findings set out here.

As usually defined, the half-life is the time in which the quantity being followed falls by half. As usually defined, the Cmax is the maximum level reached in the sampled fluid or tissue. Broadly, the Tmax is the time from dosing to the highest level.

Data set [1] concerns LO2 cells. Put plainly: Cell viability of LO2 cells exposed to APAP (MTT), liver injury model. The class given is cell-based, human.
Experimental: Cell culture and model construction: The experimental LO2 cells were provided by Shanghai Fuheng Biotechnology Co., Ltd. (Shanghai, China). Cells induced by APAP formed a cell model of liver injury. The cells were cultured in RPMI 1640 medium containing 100 units of penicillin, 100 μg/mL streptomycin, and 10% FBS at 37 °C and 5% CO2 atmosphere. The cells were changed daily and passaged when the contact reached 80%. Cells in the logarithmic growth phase were seeded onto a 96-well plate at a density of 4000 cells per well and subsequently incubated at 37 °C in an atmosphere containing 5% CO2. After 24 h of pre-incubation, cells were exposed to APAP at concentrations of 2, 4, 8, and 16 mM, followed by continued culture for the designated time periods. Subsequently, 20 μL of MTT solution (5 mg/mL, dissolved in PBS) was added to each well and incubated for an additional 4 h at 37 °C. To dissolve the formed formazan crystals, 200 μL of DMSO was added. The absorbance values were then measured at 490 nm using a microplate reader ([sequence] 200 PRO, Tecan, Männedorf, Switzerland). The cell survival rates at different APAP concentrations were calculated, and a cell survival rate below 60% was considered indicative of successful model construction. The specific formula employed for calculating the cell survival rate is provided below. […] Cell viability=AAPAP−ABlank/AControl−ABlank
The nature of data set [2]: Pharmacokinetics after oral gavage in rats (plasma, HPLC). In kind it is in vivo, Sprague Dawley rats. The following applies: male, Sprague Dawley, rat, po, 20 mg/kg. From the text:
Nine male Sprague Dawley rats, each weighing approximately 250 g ± 25 g, were meticulously selected as the experimental subjects (sourced from Beijing SPF Biotechnology Co., Ltd., (Beijing, China) SPF grade, licensed under SCXK (Jing) 2019-0010). The experimental protocol was approved by the Institutional Animal Care and Use Committee of Hebei Medical University and conformed to the Guide for Care and Use of Laboratory Animals (approval NO. 2023040). Prior to and throughout the experimental period, the rats were provided with unrestricted access to standard rodent chow and water. The housing facilities for these animals adhered strictly to the standards outlined by the International Association for the Evaluation and Certification of Laboratory Animal Care, ensuring optimal conditions for the animals’ wellbeing. The experimental feeding environment was maintained at a temperature of 22–24 °C, with a relative humidity of 50 ± 5%, and a 12-h light/dark cycle to mimic natural diurnal rhythms. The rats were randomly allocated into three distinct groups, with an equal distribution of three rats per group. MONO, DIAM, and MAGN were administered orally at a dose of 20 mg/kg. The amount administered was calculated as the contents of glycyrrhizinate or magnesium isoglycyrrhizinate. Each compound was dissolved in 0.5% carboxymethylcellulose sodium (CMC-Na) solution and delivered immediately to rats via gastric gavage. Blood samples of 0.2 mL were obtained at various time points post-administration (0.5, 1, 2, 4, 8, 12, 24, and 48 h) and centrifuged at 1500× g for 10 min at 4 °C, allowing for the separation of plasma, which was collected and stored at −20 °C for subsequent analysis.
Fifty microliters (50 μL) of plasma was obtained and spiked with 10 μL of dipyridamole solution as an internal standard. Subsequently, 100 μL of acetonitrile was added to precipitate the proteins, followed by vortex mixing. The mixture was centrifuged at 6000× g for 10 min at 4 °C. The resulting precipitate was discarded, and the supernatant was evaporated to dryness under a nitrogen stream at 60 °C. The residual precipitate was redissolved in 200 μL of mobile phase, vortexed for 5 min, and sonicated for 30 s. Following this, the solution was centrifuged again at 6000× g for 10 min at 4 °C. Then, 10 μL of the supernatant was injected and the chromatogram was recorded for analysis.
HPLC was employed using the Agilent 1200 series system (Agilent Technologies, Wilmington, DE, USA) with Agilent Chemstation LC B.04.03 Software. The separation was on a Venusil MP C18(2) chromatographic column (150 × 4.6 mm, 5 μm, Agela Technologies, Tianjin, China) based on the United States Pharmacopeia with adjustments performed. Isocratic elution with a mixture of 40 volumes of acetonitrile and 60 volumes of water (containing 0.5% acetic acid) was used. The flow rate and temperature were 1.0 mL/min and 40 °C, respectively. A volume of 10 μL of the sample was injected under 254 nm for analyses and with three repetitions for each test (n = 3). All the pharmacokinetic data were calculated by Drug and Statistics (DAS) 2.0 software (Mathematical Pharmacology Professional Committee of China, Shanghai, China) and presented as mean ± SD. The main parameters such as the area under the curve (AUC), the maximum plasma concentration (Cmax), the time to Cmax (Tmax), and elimination half-life (t1/2) were tabulated.

Data set [3] relates to LO2 cells. Put plainly: Hepatocyte protection rate in APAP-induced LO2 cells (MTT). The class given is cell-based, human. The following applies: 16 mM APAP, 200, 400 and 600 μM. The protocol: Assessment of hepatocyte-protective effects: Cells in the logarithmic growth phase were seeded onto a 96-well plate at a density of 4000 cells per well, followed by incubation at 37 °C in an atmosphere containing 5% CO2. After 24 h of incubation, cells were treated with 16 mM APAP, followed by the addition of MONO, DIAM, and MAGN at three escalating concentrations (200, 400, and 600 μM for each compound). The cell survival rate was quantitatively evaluated using MTT method. The protective efficacy of the compounds was then calculated employing the formula outlined below.(1) Hepatocytes protection rate=AGlycyrrhizinate−AAPAP/Anormal−AAPAP×1

As for `CC(=O)Nc1ccc(O)cc1` [APAP, acetaminophen], the “cytotoxicity towards LO2 cells” value in the data set with LO2 cells [1] (APAP 2-16 mM) is listed as “concentration-dependent cytotoxicity”. For the same molecule, the cell survival rate result with LO2 cells [1] (APAP concentrations exceeding 16 mM, 24 h of APAP exposure) is “below 60%”.
For the molecule `CC1(C)[C@@H](O[C@H]2O[C@H](C(=O)O)[C@@H](O)[C@H](O)[C@H]2O[C@@H]2O[C@H](C(=O)O)[C@@H](O)[C@H](O)[C@H]2O)CC[C@]2(C)[C@H]3C(=O)C=C4[C@@H]5C[C@@](C)(C(=O)O)CC[C@]5(C)CC[C@@]4(C)[C@]3(C)CC[C@@H]12` [MONO, monoammonium glycyrrhizinate], in data set [2] (n = 3), the half-life was 10.8 ± 0.66 h. The AUC(0-t) in data set [2] (n = 3, read-out: AUC0-t) came out at 320 ± 78.6 µg·h/mL. For the same molecule, the Cmax in data set [2] (n = 3, read-out: Cmax) was 15000 ± 3640 ng/mL. For the same molecule, the Tmax in data set [2] (n = 3, read-out: Tmax) is 8 h. Further, in the data set with LO2 cells [3], the “hepatocyte protection (therapeutic effect)” value was “concentration-dependent therapeutic effects”.
